≈ marks a conversion by molar mass, not a printed value. Calls of active or inactive are those of the source. The calls are words filed in the database; no cut-off is given here.
Columns and labels:
Acetylcholinesterase = Acetylcholinesterase (Electrophorus electricus, UniProt O42275); test: Inhibition of electric eel AChE using acetylthiocholine iodide as substrate by spectrophotometric analysis
[1] = tested on: Mycobacterium tuberculosis; test: Antitubercular activity against Mycobacterium tuberculosis H37Rv assessed as inhibition of bacterial growth measured after 8 days by Alamar blue assay; format: functional; details: 192 h, time 8 day
Plasmodium falciparum [2] = test: Antiplasmodial activity against chloroquine-resistant Plasmodium falciparum Dd2; format: functional, organism-based
Plasmodium falciparum [3] = test: Antiplasmodial activity against chloroquine-sensitive Plasmodium falciparum 3D7; format: functional, organism-based
[4] = Cytotoxicity against human HepG2 cells assessed as inhibition of cell growth at 5 uM measured after 48 hrs by MTT assay relative to control; format: toxicity, cell-based
[5] = biological target: T1, Glutamate 5-kinase (Escherichia coli) (UniProt P0A7B5); test: Allosteric inhibition of Escherichia coli G5K assessed as decrease in apparent Vmax for ATP using L-Glu and ATP as substate at 120 uM by NADH-coupled assay; details: filed as negative allosteric modulator
T1 sequence (whole entry): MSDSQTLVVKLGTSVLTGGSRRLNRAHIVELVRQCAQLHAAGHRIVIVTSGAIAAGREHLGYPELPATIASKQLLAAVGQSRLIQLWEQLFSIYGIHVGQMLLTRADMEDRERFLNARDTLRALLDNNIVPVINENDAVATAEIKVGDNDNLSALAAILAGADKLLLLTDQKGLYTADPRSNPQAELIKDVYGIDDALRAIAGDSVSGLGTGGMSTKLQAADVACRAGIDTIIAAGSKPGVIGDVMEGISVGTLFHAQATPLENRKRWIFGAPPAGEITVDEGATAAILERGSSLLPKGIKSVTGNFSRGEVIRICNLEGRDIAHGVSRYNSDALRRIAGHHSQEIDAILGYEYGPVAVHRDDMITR

[6] = Cytotoxicity against human HepG2 cells assessed as inhibition of cell growth at 20 uM measured after 48 hrs by MTT assay relative to control; format: toxicity, cell-based
[7] = biological target: T1, Glutamate 5-kinase (Escherichia coli); test: Allosteric inhibition of Escherichia coli G5K using 10 mM L-Glu and 10 mM ATP as substate by NADH-coupled assay; details: filed as negative allosteric modulator
[8] = biological target: T1, Glutamate 5-kinase (Escherichia coli); test: Allosteric inhibition of Escherichia coli G5K using 150 mM L-Glu and 10 mM ATP as substate by NADH-coupled assay relative to control; details: filed as negative allosteric modulator
[9] = Cytotoxicity against human HepG2 cells assessed as inhibition of cell growth at 10 uM measured after 48 hrs by MTT assay relative to control; format: toxicity, cell-based
[10] = tested on: Mycobacterium tuberculosis; test: Antitubercular activity against Mycobacterium tuberculosis H37Rv assessed as inhibition of bacterial growth; format: functional
[11] = biological target: T1, Glutamate 5-kinase (Escherichia coli); test: Allosteric inhibition of Escherichia coli G5K assessed as increase in apparent Km for ATP using L-Glu and ATP as substate at 120 uM by NADH-coupled assay; details: filed as negative allosteric modulator
[12] = biological target: T1, Glutamate 5-kinase (Escherichia coli); test: Allosteric inhibition of Escherichia coli G5K assessed as enzyme residual activity using 150 mM L-Glu and 2.2 to 8.4 mM ATP as substate by NADH-coupled assay relative to control
[13] = biological target: T1, Glutamate 5-kinase (Escherichia coli); test: Allosteric inhibition of Escherichia coli G5K assessed as enzyme residual activity using 150 mM L-Glu and 10 mM ATP as substate by NADH-coupled assay relative to control

Chain of Acetylcholinesterase (O42275 whole entry): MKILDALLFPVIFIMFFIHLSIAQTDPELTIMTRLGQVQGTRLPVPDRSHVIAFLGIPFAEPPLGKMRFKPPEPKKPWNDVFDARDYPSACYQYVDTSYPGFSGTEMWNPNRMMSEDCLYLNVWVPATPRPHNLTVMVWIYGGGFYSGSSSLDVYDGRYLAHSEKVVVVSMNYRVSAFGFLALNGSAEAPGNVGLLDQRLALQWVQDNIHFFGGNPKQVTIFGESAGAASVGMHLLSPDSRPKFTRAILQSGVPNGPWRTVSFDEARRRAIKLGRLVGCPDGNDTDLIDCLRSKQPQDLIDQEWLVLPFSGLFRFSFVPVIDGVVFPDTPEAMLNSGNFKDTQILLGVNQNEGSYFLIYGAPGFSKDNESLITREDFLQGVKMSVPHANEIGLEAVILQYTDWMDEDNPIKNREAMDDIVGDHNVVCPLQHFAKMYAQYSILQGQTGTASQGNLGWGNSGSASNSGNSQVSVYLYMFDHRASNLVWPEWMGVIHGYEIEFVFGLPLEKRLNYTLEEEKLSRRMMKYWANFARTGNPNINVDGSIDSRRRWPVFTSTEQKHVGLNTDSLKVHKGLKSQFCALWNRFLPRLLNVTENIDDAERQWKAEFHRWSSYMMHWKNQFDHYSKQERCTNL

| SMILES | MIC [1] [µM] | also measured |
| --- | --- | --- |
| CC(C)Cc1nc2ccccc2c2cc[nH]c12 | 22.6 (≈ 5.07 µg/mL) | IC50 (Acetylcholinesterase): 3.6 µM |
| COc1ccc2c(c1)nc(Cc1ccccc1)c1[nH]ccc12 | 34.7 (≈ 10 µg/mL) |  |
| Fc1cccc(-c2c[nH]c3c(-c4ccc(Cl)cc4)nc4ccccc4c23)c1 | 26.8 (≈ 9.99 µg/mL) |  |
| c1ccc2c(c1)nc(-c1c[nH]c3ccccc13)c1[nH]ccc12 [MARINOQUINOLINE E] |  | IC50 (Acetylcholinesterase): 3.6 µM |
| Nc1ncnc2c1ncn2Cc1nc2ccccc2c2cc[nH]c12 |  | IC50 (Plasmodium falciparum [2]): 1.65 µM; IC50 (Plasmodium falciparum [3]): 1.47 µM |
| Clc1ccc(-c2nc3ccccc3c3c(Br)c[nH]c23)cc1 | 14 (≈ 5.01 µg/mL) |  |
| Fc1ccc2c(c1)nc(-c1ccc(Cl)cc1)c1[nH]ccc12 | 4.2 (≈ 1.25 µg/mL) | inhibition at 48 h, 5 µM [4]: 1%; inhibition [5]: Active; inhibition at 48 h, 20 µM [6]: 2%; I0.5 [7]: 33 µM; inhibition [8]: 40%; inhibition at 48 h, 10 µM [9]: 1% |
| CC(C)(C)OC(=O)Nc1ccc(-c2nc3ccccc3c3[nH]c4ccccc4c23)cc1 |  | MIC [10]: 6.1 µM (≈ 2.5 µg/mL) |
| Cc1ccc2c(c1)nc(C1CC1)c1[nH]ccc12 | 45 (≈ 10 µg/mL) |  |
| CCCCCCCCc1nc2cc(C)ccc2c2cc[nH]c12 | 17 (≈ 5.01 µg/mL) |  |
| Oc1ccc(Cc2nc3ccccc3c3cc[nH]c23)cc1 [MARINOQUINOLINE D] |  | IC50 (Acetylcholinesterase): 3.6 µM |
| Clc1ccc(-c2nc3ccccc3c3cc[nH]c23)cc1 | 17.9 (≈ 4.99 µg/mL) |  |
| O=C(c1c[nH]c2ccccc12)c1nc2ccccc2c2cc[nH]c12 [MARINOQUINOLINE F] |  | IC50 (Acetylcholinesterase): 3.6 µM |
| c1ccc2c(c1)nc(-c1ccc(N3CCCC3)cc1)c1c3ncccc3[nH]c21 |  | MIC [10]: 13.7 µM (≈ 4.99 µg/mL) |
| O=C(O)[C@@H]1CCCN1 |  | I0.5 [7]: 2.5 µM; inhibition [8]: 100% |
| Clc1ccc(-c2nc3cc(Cl)ccc3c3cc[nH]c23)cc1 | 16 (≈ 5.01 µg/mL) |  |
| Cc1nc2ccccc2c2cc[nH]c12 [MARINOQUINOLINE A] |  | IC50 (Acetylcholinesterase): 3.6 µM |
| COc1ccc2c(c1)nc(CCc1ccccc1)c1[nH]ccc12 | 4.1 (≈ 1.24 µg/mL) | inhibition at 48 h, 5 µM [4]: 1%; inhibition [11]: Active; Activity [12]: 66%; inhibition at 48 h, 20 µM [6]: 17%; I0.5 [7]: 22.1 µM; Activity [13]: 68%; inhibition at 48 h, 10 µM [9]: 3% |

| SMILES | MIC [1] [µM] | also measured |
| --- | --- | --- |
| Fc1ccc2c(c1)nc(CCc1ccccc1)c1[nH]ccc12 | 34.4 (≈ 9.99 µg/mL) |  |
| Cn1ccc2c3ccccc3nc(-c3ccc(Cl)cc3)c21 | 17.1 (≈ 5.01 µg/mL) |  |
| CCCCCCCCc1nc2ccccc2c2cc[nH]c12 | 17.8 (≈ 4.99 µg/mL) |  |
| COc1ccc2c(c1)nc(CCc1ccccc1)c1c2ccn1C | 7.9 (≈ 2.5 µg/mL) |  |
| c1ccc(CCc2nc3ccccc3c3cc[nH]c23)cc1 | 36.7 (≈ 10 µg/mL) |  |
| c1ccc(-c2ccc(-c3nc4ccccc4c4cc[nH]c34)cc2)cc1 | 31.2 (≈ 10 µg/mL) |  |
| CCCCCCCCc1nc2cc(OC)ccc2c2cc[nH]c12 | 16.1 (≈ 5 µg/mL) |  |
| Clc1ccc(-c2nc3ccccc3c3c(Cl)c[nH]c23)cc1 | 16 (≈ 5.01 µg/mL) |  |
| CCCCCCCCc1nc2cc(F)ccc2c2cc[nH]c12 | 16.8 (≈ 5.01 µg/mL) |  |
| Cc1ccc2c(c1)nc(-c1ccc(Cl)cc1)c1c2ccn1C | 16.3 (≈ 5 µg/mL) |  |
| c1ccc(Cc2nc3ccccc3c3cc[nH]c23)cc1 [MARINOQUINOLINE C] |  | IC50 (Acetylcholinesterase): 3.6 µM |
| Cc1ccc2c(c1)nc(-c1ccc(Cl)cc1)c1[nH]ccc12 | 8.5 (≈ 2.49 µg/mL) |  |
| COC(=O)c1ccc2c(c1)nc(-c1ccc(Cl)cc1)c1[nH]ccc12 | > 500 |  |
| FC(F)(F)c1ccc2c(c1)nc(-c1ccc(Cl)cc1)c1[nH]ccc12 | 14.4 (≈ 4.99 µg/mL) |  |
| Fc1ccc2c(c1)nc(-c1ccc(Cl)cc1)c1c2ccn1CC1CC1 | 14.2 (≈ 4.98 µg/mL) |  |
| c1ccc2c(c1)nc(C1CC1)c1[nH]ccc12 | 24 (≈ 5 µg/mL) |  |
| COc1c(N2C[C@@H]3CCCN[C@@H]3C2)c(F)cc2c(=O)c(C(=O)O)cn(C3CC3)c12 [MOXIFLOXACIN] | 0.15 (≈ 0.0602 µg/mL) |  |

From ChEMBL document CHEMBL5154763, “Discovery of 3H-pyrrolo[2,3-c]quinolines with activity against Mycobacterium tuberculosis by allosteric inhibition of the glutamate-5-kinase enzyme” (Eur J Med Chem, 2022)
